Test results from patent publication US20240270751A1, “Pyrazolopyridinone Compounds” (BeiGene Ltd., priority 2021, published 2024).

Experiments:
DGKζ = DGKζ (Homo sapiens (Human), UniProt Q13574); experiment: Biochemical DGK IC50 assay, DGKζ ADP-Glo assay; details: 0.5 nM enzyme, 140 μM ATP, 80 μM DAG; read-out: DGKζ ADP-Glo assay IC50
In short: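 Full-length human DGKζ, His-TEV tagged and purified from baculovirus-infected Sf9 cells, assayed by ADP-Glo with DAG/PS lipid micelle substrate prepared in 25 mM HEPES pH 7.0 with octyl glucoside. Final compound concentrations spanned 1.55–10000 nM or 23.3–150000 nM.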

DGKα = DGKα (Homo sapiens (Human), UniProt P23743); experiment: Biochemical DGK IC50 assay, DGKα ADP-Glo assay; details: 7.5 nM enzyme, 140 μM ATP, 80 μM DAG
Chain of DGKα (P23743 whole entry): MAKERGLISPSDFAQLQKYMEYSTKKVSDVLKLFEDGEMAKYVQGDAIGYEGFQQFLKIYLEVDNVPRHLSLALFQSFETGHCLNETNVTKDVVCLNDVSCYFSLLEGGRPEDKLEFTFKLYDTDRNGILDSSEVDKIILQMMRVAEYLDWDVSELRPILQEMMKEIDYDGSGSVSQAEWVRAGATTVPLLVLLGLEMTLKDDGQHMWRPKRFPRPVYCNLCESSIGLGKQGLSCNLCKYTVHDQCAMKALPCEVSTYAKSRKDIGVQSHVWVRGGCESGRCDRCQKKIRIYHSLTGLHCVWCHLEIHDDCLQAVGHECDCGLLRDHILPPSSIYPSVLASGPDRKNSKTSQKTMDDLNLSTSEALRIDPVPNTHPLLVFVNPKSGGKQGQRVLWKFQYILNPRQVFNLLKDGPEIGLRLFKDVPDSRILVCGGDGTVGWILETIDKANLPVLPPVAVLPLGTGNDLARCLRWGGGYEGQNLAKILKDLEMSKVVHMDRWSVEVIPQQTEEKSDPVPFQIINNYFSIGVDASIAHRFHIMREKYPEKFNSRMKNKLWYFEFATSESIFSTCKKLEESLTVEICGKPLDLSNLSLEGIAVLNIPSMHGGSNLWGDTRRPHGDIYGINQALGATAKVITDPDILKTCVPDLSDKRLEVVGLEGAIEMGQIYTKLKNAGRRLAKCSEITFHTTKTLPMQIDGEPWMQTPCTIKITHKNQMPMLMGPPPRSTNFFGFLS
In short: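 ADP-Glo read-out with full-length DGKα on DAG/PS lipid micelle substrate in 25 mM HEPES pH 7.0, 0.5 mM EDTA, 160 mM octyl β-D-glucopyranoside. Compound final concentrations spanned 1.55˜10000 nM or 23.3˜150000 nM.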

Chain of DGKζ (Q13574 other isoform, or with tags, fused parts or gaps): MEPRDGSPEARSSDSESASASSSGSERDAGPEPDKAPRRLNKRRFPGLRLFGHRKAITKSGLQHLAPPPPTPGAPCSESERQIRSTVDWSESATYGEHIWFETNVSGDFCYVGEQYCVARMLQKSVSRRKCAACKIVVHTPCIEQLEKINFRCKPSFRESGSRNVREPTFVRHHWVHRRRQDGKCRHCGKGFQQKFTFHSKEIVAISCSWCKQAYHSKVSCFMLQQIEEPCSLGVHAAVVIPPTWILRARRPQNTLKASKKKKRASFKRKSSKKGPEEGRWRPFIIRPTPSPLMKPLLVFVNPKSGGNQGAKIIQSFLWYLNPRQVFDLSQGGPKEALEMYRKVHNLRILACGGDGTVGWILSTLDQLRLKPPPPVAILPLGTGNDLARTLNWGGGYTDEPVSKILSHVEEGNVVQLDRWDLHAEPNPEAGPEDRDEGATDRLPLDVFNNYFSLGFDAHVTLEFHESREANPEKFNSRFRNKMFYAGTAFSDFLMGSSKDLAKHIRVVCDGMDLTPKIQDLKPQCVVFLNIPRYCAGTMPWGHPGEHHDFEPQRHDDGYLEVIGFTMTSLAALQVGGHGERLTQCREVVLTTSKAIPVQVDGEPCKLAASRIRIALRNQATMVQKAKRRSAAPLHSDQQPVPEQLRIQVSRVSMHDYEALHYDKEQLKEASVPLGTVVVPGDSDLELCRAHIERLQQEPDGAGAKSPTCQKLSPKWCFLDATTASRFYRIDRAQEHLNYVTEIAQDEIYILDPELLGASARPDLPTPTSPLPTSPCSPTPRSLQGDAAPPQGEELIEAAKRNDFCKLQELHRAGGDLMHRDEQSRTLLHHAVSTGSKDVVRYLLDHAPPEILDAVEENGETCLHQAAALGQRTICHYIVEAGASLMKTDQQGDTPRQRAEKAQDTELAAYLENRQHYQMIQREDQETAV

Compound | IC50 (DGKζ) [µM] | IC50 (DGKα) [µM]
CC[C@H]1CN(C(C)c2ccc3nccnc3c2)[C@H](CC)CN1c1cc(=O)n(CCO)c2cn(CC#N)nc12 (stereo partly drawn) [Compound A95, 2-(7-((2S,5R)-2,5-diethyl-4-(1-(quinoxalin-6-yl)ethyl)piperazin-1-yl)-4-(2-hydroxyethyl)-5-oxo-4,5-dihydro-2H-pyrazolo[4,3-b]pyridin-2-yl)acetonitrile] | 0.053 | 12.2
CC(c1ccc2nccnc2c1)N1C[C@H](CO)N(c2cc(=O)n(C)c3cn(CC#N)nc23)C[C@H]1C (stereo partly drawn) [Compound A101, 2-(7-((2R,5R)-2-(hydroxymethyl)-5-methyl-4-(1-(quinoxalin-6-yl)ethyl)piperazin-1-yl)-4-methyl-5-oxo-4,5-dihydro-2H-pyrazolo[4,3-b]pyridin-2-yl)acetonitrile] | 0.707 | > 10
CC(c1ccc2nccnc2c1)N1C[C@H](C)N(c2cc(=O)[nH]c3cn(CC#N)nc23)C[C@H]1C (stereo partly drawn) [Compound A102, 2-(7-((2S,5R)-2,5-dimethyl-4-(1-(quinoxalin-6-yl)ethyl)piperazin-1-yl)-5-oxo-4,5-dihydro-2H-pyrazolo[4,3-b]pyridin-2-yl)acetonitrile] | 0.288 | > 10
CC[C@H]1CN(C(C)c2cccn(C)c2=O)[C@H](CC)CN1c1cc(=O)n(C)c2cn(CC#N)nc12 (stereo partly drawn) [Compound A104] | > 10 | > 10
CC[C@H]1CN(C(C)c2cccnc2OC)[C@H](CC)CN1c1cc(=O)n(C)c2cn(CC#N)nc12 (stereo partly drawn) [Compound A105] | 0.258 | 8.92
CC[C@H]1CN(C(C)c2cccc(NC(C)=O)c2)[C@H](CC)CN1c1cc(=O)n(C)c2cn(CC#N)nc12 (stereo partly drawn) [Compound A109] | 7.85 | 6.17
CC[C@H]1CN(C(C)c2ccc(F)cc2Br)[C@H](CC)CN1c1cc(=O)n(C)c2cn(CC#N)nc12 (stereo partly drawn) [Compound A111, 2-(7-((2S,5R)-4-(1-(2-bromo-4-fluorophenyl)ethyl)-2,5-diethylpiperazin-1-yl)-4-methyl-5-oxo-4,5-dihydro-2H-pyrazolo[4,3-b]pyridin-2-yl)acetonitrile] | 0.096 | > 10
CC[C@H]1CN(C(C)c2cc(C)ccc2C(F)(F)F)[C@H](CC)CN1c1cc(=O)n(C)c2cn(CC#N)nc12 (stereo partly drawn) [Compound A114] | 6.6 | > 10
CC[C@H]1CN(C(C)c2ccc(F)cc2Cl)[C@H](CC)CN1c1cc(=O)n(C)c2cn(CC#N)nc12 (stereo partly drawn) [Compound A116] | 0.146 | 5.76
CC[C@H]1CN(C(C)c2ccncc2C(F)(F)F)[C@H](CC)CN1c1cc(=O)n(C)c2cn(CC#N)nc12 (stereo partly drawn) [Compound A118] | 0.185 | > 150
CC[C@H]1CN(C(C)c2cccc(CO)c2)[C@H](CC)CN1c1cc(=O)n(C)c2cn(CC#N)nc12 (stereo partly drawn) [Compound A121b] | > 10 | 4.16
CC[C@H]1CN(C(C)c2ccc(OC(F)(F)F)cc2)[C@H](CC)CN1c1cc(=O)n(C)c2cn(CC#N)nc12 (stereo partly drawn) [Compound A122] | 0.635 | 0.0105
CC[C@H]1CN(C(C)c2ccc3nccnc3c2)[C@H](CC)CN1c1cc(=O)n(CC(F)(F)F)c2cn(CC#N)nc12 (stereo partly drawn) [Compound A123, 2-(7-((2S,5R)-2,5-diethyl-4-(1-(quinoxalin-6-yl)ethyl)piperazin-1-yl)-5-oxo-4-(2,2,2-trifluoroethyl)-4,5-dihydro-2H-pyrazolo[4,3-b]pyridin-2-yl)acetonitrile] | 1.74 | 6.03
C[C@@H](c1ccc2nccnc2c1)N1CC2CCC1CN2c1cc(=O)n(C)c2cn(CC#N)nc12 (stereo partly drawn) [Compound A125a] | > 10 | > 10
C[C@H](c1ccc2nccnc2c1)N1CC2CCC1CN2c1cc(=O)n(C)c2cn(CC#N)nc12 (stereo partly drawn) [Compound A125b] | 5.27 | > 10
CC[C@H]1CN(C(C)c2ccc(C)cc2)[C@H](CC)CN1c1cc(=O)n(C)c2cn(CC#N)nc12 (stereo partly drawn) [Compound A127, 2-(7-((2S,5R)-2,5-diethyl-4-(1-(p-tolyl)ethyl)piperazin-1-yl)-4-methyl-5-oxo-4,5-dihydro-2H-pyrazolo[4,3-b]pyridin-2-yl)acetonitrile] | 0.26 | 0.056
CC[C@H]1CN(C(C)c2ccc(C(F)F)cc2)[C@H](CC)CN1c1cc(=O)n(C)c2cn(CC#N)nc12 (stereo partly drawn) [Compound A128] | 0.112 | 0.031
CC[C@H]1CN([C@@H](C)c2ccc3nccnc3c2)[C@H](CC)CN1c1cc(=O)[nH]c2cn(CC#N)nc12 [Compound A129, 2-(7-((2S,5R)-2,5-diethyl-4-((S)-1-(quinoxalin-6-yl)ethyl)piperazin-1-yl)-5-oxo-4,5-dihydro-2H-pyrazolo[4,3-b]pyridin-2-yl)acetonitrile] | 0.033 | 2.35
CC[C@H]1CN(C(C)c2ccncn2)[C@H](CC)CN1c1cc(=O)n(C)c2cn(CC#N)nc12 (stereo partly drawn) [Compound A131] | 8.99 | 0.287
C[C@@H]1CN(c2c(Cl)c(=O)n(C)c3cn(CC#N)nc23)[C@@H](C)CN1[C@@H](C)c1ccc2nccnc2c1 [Compound A133, 2-(6-chloro-7-((2S,5R)-2,5-dimethyl-4-((S)-1-(quinoxalin-6-yl)ethyl)piperazin-1-yl)-4-methyl-5-oxo-4,5-dihydro-2H-pyrazolo[4,3-b]pyridin-2-yl)acetonitrile] | 9.39 | > 10

Other lines, results leading:

IC50 (DGKζ) [µM] | IC50 (DGKα) [µM] | Compound
0.098 | 9.13 | CC[C@H]1CN(C(C)c2c(OC)cc(F)cc2OC)[C@H](CC)CN1c1cc(=O)n(C)c2cn(CC#N)nc12 (stereo partly drawn) [Compound A94]
0.255 | > 10 | CC[C@H]1CN(C(C)c2ccc3nccnc3c2)[C@H](CC)CN1c1cc(=O)n(CCOC)c2cn(CC#N)nc12 (stereo partly drawn) [Compound A96, 2-(7-((2S,5R)-2,5-diethyl-4-(1-(quinoxalin-6-yl)ethyl)piperazin-1-yl)-4-(2-methoxyethyl)-5-oxo-4,5-dihydro-2H-pyrazolo[4,3-b]pyridin-2-yl)acetonitrile]
0.41 | 27 | CC[C@H]1CN(C(C)c2ccc3nccnc3c2)[C@H](C)CN1c1cc(=O)n(C)c2cn(CC#N)nc12 (stereo partly drawn) [Compound A98, 2-(7-((2S,5R)-2-ethyl-5-methyl-4-(1-(quinoxalin-6-yl)ethyl)piperazin-1-yl)-4-methyl-5-oxo-4,5-dihydro-2H-pyrazolo[4,3-b]pyridin-2-yl)acetonitrile]
2.79 | > 10 | CC(c1ccc2nccnc2c1)N1C[C@H](C)N(c2cc(=O)n(C)c3cn(CC#N)nc23)C[C@H]1CO (stereo partly drawn) [Compound A99, 2-(7-((2S,5S)-5-(hydroxymethyl)-2-methyl-4-(1-(quinoxalin-6-yl)ethyl)piperazin-1-yl)-4-methyl-5-oxo-4,5-dihydro-2H-pyrazolo[4,3-b]pyridin-2-yl)acetonitrile]
0.2 | 3.78 | COC[C@@H]1CN(c2cc(=O)n(C)c3cn(CC#N)nc23)[C@@H](C)CN1C(C)c1ccc2nccnc2c1 (stereo partly drawn) [Compound A100, 2-(7-((2S,5S)-5-(methoxymethyl)-2-methyl-4-(1-(quinoxalin-6-yl)ethyl)piperazin-1-yl)-4-methyl-5-oxo-4,5-dihydro-2H-pyrazolo[4,3-b]pyridin-2-yl)acetonitrile]
0.272 | > 10 | CC[C@H]1CN(C(C)c2ccccc2COC)[C@H](CC)CN1c1cc(=O)n(C)c2cn(CC#N)nc12 (stereo partly drawn) [Compound A107]
> 10 | 3.83 | CC[C@H]1CN(C(C)c2cccc(C(N)=O)c2)[C@H](CC)CN1c1cc(=O)n(C)c2cn(CC#N)nc12 (stereo partly drawn) [Compound A108]
3.87 | > 10 | CC[C@H]1CN(C(C)c2c(C)cccc2C(F)(F)F)[C@H](CC)CN1c1cc(=O)n(C)c2cn(CC#N)nc12 (stereo partly drawn) [Compound A117]
> 10 | > 10 | CC[C@H]1CN([C@H](C)c2ccc3nccnc3c2)[C@H](CC)CN1c1cc(=O)n(CC(F)(F)F)c2cn(CC#N)nc12 [Compound A124]
0.0072 | 0.449 | CC[C@H]1CN(C(C)c2ccc3c(c2)OCCO3)[C@H](CC)CN1c1cc(=O)n(C)c2cn(CC#N)nc12 (stereo partly drawn) [Compound A126, 2-(7-((2S,5R)-4-(1-(2,3-dihydrobenzo[b][1,4]dioxin-6-yl)ethyl)-2,5-diethylpiperazin-1-yl)-4-methyl-5-oxo-4,5-dihydro-2H-pyrazolo[4,3-b]pyridin-2-yl)acetonitrile]
9.08 | 0.015 | CC[C@H]1CN(C(C)c2ncccn2)[C@H](CC)CN1c1cc(=O)n(C)c2cn(CC#N)nc12 (stereo partly drawn) [Compound A130]
0.035 | 1.94 | C[C@@H]1CN(c2c(C#N)c(=O)n(C)c3cn(CC#N)nc23)[C@@H](C)CN1[C@@H](C)c1ccc2nccnc2c1 [Compound A134, 2-(cyanomethyl)-7-((2S,5R)-2,5-dimethyl-4-((S)-1-(quinoxalin-6-yl)ethyl)piperazin-1-yl)-4-methyl-5-oxo-4,5-dihydro-2H-pyrazolo[4,3-b]pyridine-6-carbonitrile]
0.317 | 61.9 | CC[C@H]1CN(C(C)c2ncc(F)cc2C(F)(F)F)[C@H](CC)CN1c1cc(=O)n(C)c2cn(CC#N)nc12 (stereo partly drawn) [Compound A136, 2-(7-((2S,5R)-2,5-diethyl-4-(1-(5-fluoro-3-(trifluoromethyl)pyridin-2-yl)ethyl)piperazin-1-yl)-4-methyl-5-oxo-4,5-dihydro-2H-pyrazolo[4,3-b]pyridin-2-yl)acetonitrile]
